Measurements taken from patent US6881741B2 (ViroChem Pharma Inc., priority 2001, dated 2005).

biological target: recombinant HCV NS5B (HCV RNA-dependent RNA polymerase) (Hepatitis C virus genotype 1b, UniProt P26663); assay: biochemical; conditions: HCV polymerase activity, list of compounds of Example 27; read-out: IC50 (polymerase activity)
Sequence (P26663 2420-3010 limits assumed): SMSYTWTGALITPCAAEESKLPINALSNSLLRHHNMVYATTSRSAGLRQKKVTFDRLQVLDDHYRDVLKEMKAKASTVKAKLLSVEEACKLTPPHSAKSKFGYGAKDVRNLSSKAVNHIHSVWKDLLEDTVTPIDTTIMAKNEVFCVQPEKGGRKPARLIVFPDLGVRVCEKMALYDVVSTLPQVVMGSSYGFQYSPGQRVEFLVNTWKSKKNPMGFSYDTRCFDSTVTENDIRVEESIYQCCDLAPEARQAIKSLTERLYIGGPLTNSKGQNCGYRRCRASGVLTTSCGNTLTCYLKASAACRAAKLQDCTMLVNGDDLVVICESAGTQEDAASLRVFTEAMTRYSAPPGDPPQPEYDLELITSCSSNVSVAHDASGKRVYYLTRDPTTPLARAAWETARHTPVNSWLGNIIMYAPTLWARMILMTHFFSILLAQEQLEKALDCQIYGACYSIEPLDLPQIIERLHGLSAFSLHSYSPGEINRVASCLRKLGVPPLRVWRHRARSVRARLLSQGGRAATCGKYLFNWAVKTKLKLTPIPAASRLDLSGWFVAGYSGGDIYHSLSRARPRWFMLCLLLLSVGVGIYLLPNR

| SMILES | IC50 [µM] |
| --- | --- |
| O=C(O)c1sc(-c2ccccc2)cc1N(Cc1ccc([N+](=O)[O-])cc1)C(=O)C1CC1 [Compound 420, 3-[CYCLOPROPANECARBONYL-(4- NITRO-BENZYL)-AMINO]-5-PHENYL- THIOPHENE-2-CARBOXYLIC ACID] | 5 to 20 |
| CCCC(=O)N(Cc1ccccc1C)c1cc(-c2ccccc2)sc1C(=O)O [Compound 433, 3-[BUTYRYL-(2-METHYL-BENZYL)- AMINO]-5-PHENYL-THIOPHENE-2- CARBOXYLIC ACID] | 5 to 20 |
| CC(c1ccccc1)N(C(=O)c1ccc(Cl)cc1Cl)c1cc(-c2ccccc2)sc1C(=O)O (stereo not drawn) [Compound 403, 3-[(2,4-DICHLORO-BENZOYL)-(1-PHENYL- ETHYL)-AMINO]-5-PHENYL-THIOPHENE- 2-CARBOXYLIC ACID] | < 5 |
| CC1CN(C(=O)OCc2ccccc2)CCC1N(C(=O)c1ccc(Cl)cc1Cl)c1cc(-c2ccccc2)sc1C(=O)O (stereo not drawn) [Compound 533, 4-[(2-CARBOXY-5-PHENYL-THIOPHEN-3- YL)-(2,4-DICHLORO-BENZOYL)-AMINO]-3- METHYL- PIPERIDINE-1-CARBOXYLIC ACID BENZYL ESTER] | < 5 |
| CCCC(=O)N(Cc1ccc(C(C)(C)C)cc1)c1cc(-c2ccccc2)sc1C(=O)O [Compound 440, 3-[(4-TERT-BUTYL-BENZYL)-BUTYRYL- AMINO]-5-PHENYL-THIOPHENE-2- CARBOXYLIC ACID] | 5 to 20 |
| CC(C)CC(=O)N(Cc1ccc(F)cc1F)c1cc(-c2ccccc2)sc1C(=O)O [Compound 486, 3-[(2,4-DIFLUORO-BENZYL)-(3-METHYL- BUTYRYL)-AMINO]-5-PHENYL- THIOPHENE-2-CARBOXYLIC ACID] | 5 to 20 |
| COCC(C)N(C(=O)c1ccc(Cl)cc1Cl)c1cc(-c2ccccc2)sc1C(=O)O (stereo not drawn) [Compound 561, 3-[(2,4-DICHLORO-BENZOYL)-(2- METHOXY-1-METHYL-ETHYL)-AMINO]-5- PHENYL-THIOPHENE-2-CARBOXYLIC ACID] | < 5 |
| C=CCN(C(=O)CC1CCCC1)c1cc(-c2ccccc2)sc1C(=O)O [Compound 401, 3-[ALLYL-(2-CYCLOPENTYL-ACETYL)- AMINO]-5-PHENYL-THIOPHENE-2- CARBOXYLIC ACID] | < 5 |

same assay, conditions: related polymerase activity (Example 27 list); read-out: IC50

| SMILES | IC50 [µM] |
| --- | --- |
| CC(C)CC(=O)N(C)c1cc(-c2ccccc2)sc1C(=O)O [Compound 172, 3-[METHYL-(3-METHYL-BUTYRYL)-AMINO]-5-PHENYL-THIOPHENE-2-CARBOXYLIC ACID] | < 5 |
| Cc1ccccc1S(=O)(=O)Nc1cc(-c2cccc(Cl)c2)sc1C(=O)O [Compound 65, 5-(3-CHLORO-PHENYL)-3-(TOLUENE-2-SULFONYLAMINO)-THIOPHENE-2-CARBOXYLIC ACID] | < 5 |
| O=C(O)c1sc(-c2ccccc2)cc1N(Cc1ccc(-c2cc3ccccc3o2)s1)C(=O)c1ccc(Cl)cc1Cl [Compound 12, 3-[(5-BENZOFURAN-2-YL-THIOPHEN-2-YLMETHYL)-(2,4-DICHLORO-BENZOYL)-AMINO]-5-PHENYL-THIOPHENE-2-CARBOXYLIC ACID] | 5 to 20 |
| CC(C)N(C(=O)c1ccc(Cl)nc1)c1cc(-c2ccccc2)sc1C(=O)O [Compound 246, 3-[(6-CHLORO-PYRIDINE-3-CARBONYL)-ISOPROPYL-AMINO]-5-PHENYL-THIOPHENE-2-CARBOXYLIC ACID] | > 20 |
| Cc1ccc(C(=O)N(c2cc(-c3ccccc3)sc2C(=O)O)C(C)C)c(C)c1 [Compound 262, 3-[(2,4-DIMETHYL-BENZOYL)-ISOPROPYL-AMINO]-5-PHENYL-THIOPHENE-2-CARBOXYLIC ACID] | < 5 |
| CN(C(=O)c1ccc(Cl)c(Cl)c1)c1cc(-c2ccccc2)sc1C(=O)O [Compound 253, 3-[(3,4-DICHLORO-BENZOYL)-METHYL-AMINO]-5-PHENYL-THIOPHENE-2-CARBOXYLIC ACID] | 5 to 20 |
| CC(c1ccccc1)N(C(=O)c1ccc(Cl)cc1Cl)c1cc(-c2ccccc2)sc1C(=O)O (stereo not drawn) [Compound 264, 3-[(2,4-DICHLORO-BENZOYL)-(1-PHENYL-ETHYL)-AMINO]-5-PHENYL-THIOPHENE-2-CARBOXYLIC ACID] | < 5 |
